Data published in patent US20240293430A1, “WITHAFERIN A AND IMMUNE CHECKPOINT BLOCKER COMBINATION THERAPIES” (University of South Florida, priority 2023, published 2024).

What was measured:
[1] = test system: ecto-CRT in MC38 and HCT-116 colorectal cancer cell lines; assay: Ecto-CRT by flow cytometry, colorectal cancer; assay type: cell-based, mouse (MC38), human (HCT-116)
Method: (§1) FIGS. 8A-8G depict that WFA induced ICD and PD-L1 upregulation in colorectal cancer cell lines. WFA increased the levels of ecto-CRT in the murine colorectal cancer cell line (FIG. 8A) MC-38 and human cell line (FIG. 8B) HCT-116. WFA increased the expression of PD-L1 in both (FIG. 8C) MC-38 and (FIG. 8D) HCT-116 cells. […] H1650 cells (at a higher density) were treated with a higher concentration of WFA (2 and 4 μM) to facilitate cell collection and protein isolation. The band density was quantified using Image J software and normalized to the housekeeping protein. The fold change from untreated control was averaged from two independent experiments ±SEM and one-way ANOVA was used to calculate the statistical significance. A Fisher LSD post hoc test was performed to compare the treatments to the control in (FIG. 8E) LLC, (FIG. 8F) H1650, (FIG. 8G) A549 cells. * p<0.05, ** p<0.01, *** p<0.001, **** p<0.0001.
In vitro WFA-treated or control cells were collected using Accutase cell detachment solution and stained with FACS-diluted (PBS, 10% FBS, 2 mMEDTA) pre-titrated fluorophore conjugated or primary unconjugated antibody solutions (Table 1) for 30 min on ice in the dark. […]

[2] = test system: PD-L1 expression in LLC, H1650, and A549 cell lines; assay: PD-L1 expression in NSCLC cell lines (flow cytometry, qRT-PCR, western blot); assay type: cell-based, mouse (LLC), human (H1650
Method: FIGS. 3A-3F depict that WFA upregulates PD-L1 surface expression in NSCLC cell lines. Cells were treated with WFA for 48 h. (FIGS. 3A, 3C, 3E) PD-L1 surface expression determined using flow cytometry LLC (FIG. 3A), H1650 (FIG. 3C), and A549 (FIG. 3E). (FIGS. 3B, 3D, 3F) PD-L1 expression was measured using qRT-PCR LLC (FIG. 3B), H1650 (FIG. 3D), A549 (FIG. 3F). PCR experiments were repeated twice and the mean±SEM of the technical replicates are represented. For the rest, the means of two independent experiments ±SEM are shown, and statistical significance was calculated using one-way ANOVA and a Fisher LSD post hoc test where * is p<0.05, ** is p<0.01, and **** is p <0.0001.
as §1, with “p<0.0001. […]” for “p<0.0001.”
Total cellular RNA was isolated from collected cell pellets using TRIzol reagent (Invitrogen, Waltham, MA, USA) and then quantified using the 2000 Nanodrop spectrophotometer (Thermo Fisher Scientific, Waltham, MA, USA). cDNA synthesis was performed using the Verso cDNA synthesis kit (Thermo Fisher Scientific, Waltham, MA, USA). qPCR was then performed using Forget-Me-Not EvaGreen qPCR Master Mix (Biotium, Fremont, CA, USA) in a Bio-Rad CFX384 thermocycler according to the manufacturer's instructions. […]

[3] = test system: WI-38 lung fibroblasts and PBMCs; conditions: at WFA concentrations toxic to A549 NSCLC cells; cited from earlier work

CC1=C(CO)C(=O)O[C@@H]([C@@H](C)[C@H]2CC[C@H]3[C@@H]4C[C@H]5O[C@]56[C@@H](O)C=CC(=O)[C@]6(C)[C@H]4CC[C@]23C)C1 [WFA, Withaferin A]
levels of ecto-CRT [1]: increased
PD-L1 surface expression ([2]; flow cytometry, 48 h, LLC, H1650, A549): consistently increased
PD-L1 expression (mRNA) ([2]; qRT-PCR): induced
PD-L1 expression (protein) ([2]; western blotting): induced
viability of normal cells [3]: remain viable
